Measurements: ChEMBL document CHEMBL1681678, “Discovery of β-aminoacyl containing thiazolidine derivatives as potent and selective dipeptidyl peptidase IV inhibitors” (Bioorg Med Chem Lett, 2011)
pEC50, pIC50: −log10 of the molar value. Blank lines part the entries; values can stand above or below the compound they belong to.

Key:
[1] = Chemical stability of the compound in buffer solution assessed as compound remaining at pH 1 to 9 after 24 hrs; format: physicochemical; conditions: read-out: Stability
[2] = Cytotoxicity against human WI38 cells at 100 uM; format: cell-based; conditions: wi-38, 100 µM
[3] = Inhibition of elastase
Prolyl endopeptidase = molecular target: T1, Prolyl endopeptidase (Rattus norvegicus, UniProt O70196); assay: Inhibition of POP in rat brain cortex; format: tissue-based
T1 sequence (O70196 whole entry): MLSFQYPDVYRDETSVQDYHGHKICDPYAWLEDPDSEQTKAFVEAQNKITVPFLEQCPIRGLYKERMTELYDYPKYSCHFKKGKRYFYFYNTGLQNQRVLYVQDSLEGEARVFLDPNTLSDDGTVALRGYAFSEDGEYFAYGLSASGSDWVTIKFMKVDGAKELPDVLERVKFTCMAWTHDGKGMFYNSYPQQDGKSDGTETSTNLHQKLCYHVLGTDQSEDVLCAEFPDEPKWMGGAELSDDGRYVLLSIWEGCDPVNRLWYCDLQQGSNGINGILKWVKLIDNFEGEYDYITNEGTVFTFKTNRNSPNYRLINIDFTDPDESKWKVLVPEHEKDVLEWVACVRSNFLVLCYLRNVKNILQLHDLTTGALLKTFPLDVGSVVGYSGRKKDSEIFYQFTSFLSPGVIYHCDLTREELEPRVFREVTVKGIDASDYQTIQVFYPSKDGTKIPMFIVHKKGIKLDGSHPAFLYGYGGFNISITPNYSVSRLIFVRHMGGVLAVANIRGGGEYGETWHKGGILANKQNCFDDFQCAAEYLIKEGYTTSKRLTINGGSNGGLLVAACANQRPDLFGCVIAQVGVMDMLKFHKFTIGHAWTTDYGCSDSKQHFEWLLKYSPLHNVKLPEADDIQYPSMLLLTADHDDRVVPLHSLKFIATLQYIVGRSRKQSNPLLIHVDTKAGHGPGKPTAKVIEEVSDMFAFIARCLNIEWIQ

[4] = molecular target: Voltage-gated inwardly rectifying potassium channel KCNH2 (Homo sapiens, UniProt Q12809); assay: Binding affinity to human ERG
Voltage-gated inwardly rectifying potassium channel KCNH2, sequence (Q12809 whole entry): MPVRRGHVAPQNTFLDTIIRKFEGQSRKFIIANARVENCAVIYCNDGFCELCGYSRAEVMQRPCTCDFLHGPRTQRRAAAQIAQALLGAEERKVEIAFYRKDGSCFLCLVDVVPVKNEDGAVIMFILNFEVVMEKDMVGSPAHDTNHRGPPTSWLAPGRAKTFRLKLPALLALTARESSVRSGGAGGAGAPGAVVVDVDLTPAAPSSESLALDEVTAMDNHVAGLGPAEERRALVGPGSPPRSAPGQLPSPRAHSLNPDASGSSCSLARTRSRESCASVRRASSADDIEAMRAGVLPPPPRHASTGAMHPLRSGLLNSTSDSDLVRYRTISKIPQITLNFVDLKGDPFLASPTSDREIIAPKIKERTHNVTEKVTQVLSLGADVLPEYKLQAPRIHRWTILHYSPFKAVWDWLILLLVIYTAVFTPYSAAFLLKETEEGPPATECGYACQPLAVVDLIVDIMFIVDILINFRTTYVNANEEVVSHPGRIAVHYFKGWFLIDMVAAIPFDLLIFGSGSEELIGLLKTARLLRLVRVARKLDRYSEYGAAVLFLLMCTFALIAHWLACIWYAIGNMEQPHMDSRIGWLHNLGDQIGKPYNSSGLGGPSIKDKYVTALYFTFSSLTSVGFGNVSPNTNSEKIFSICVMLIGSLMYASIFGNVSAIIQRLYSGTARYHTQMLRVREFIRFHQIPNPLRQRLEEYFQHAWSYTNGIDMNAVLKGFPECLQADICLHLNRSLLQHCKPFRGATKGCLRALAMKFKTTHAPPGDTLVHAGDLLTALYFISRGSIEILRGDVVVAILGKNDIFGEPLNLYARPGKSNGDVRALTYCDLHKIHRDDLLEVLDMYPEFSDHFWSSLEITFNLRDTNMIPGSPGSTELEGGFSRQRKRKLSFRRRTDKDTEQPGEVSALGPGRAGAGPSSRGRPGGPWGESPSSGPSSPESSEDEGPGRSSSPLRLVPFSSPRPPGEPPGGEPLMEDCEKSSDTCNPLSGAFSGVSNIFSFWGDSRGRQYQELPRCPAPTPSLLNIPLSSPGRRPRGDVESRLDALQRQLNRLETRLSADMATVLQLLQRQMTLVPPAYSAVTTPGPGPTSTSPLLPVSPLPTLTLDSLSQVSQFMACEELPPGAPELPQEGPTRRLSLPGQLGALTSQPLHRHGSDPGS

[5] = Metabolic stability in rat liver microsomes assessed as compound remaining after 1 hr; format: ADME, Microsome; conditions: read-out: Stability
Dipeptidyl peptidase 2 = Dipeptidyl peptidase 2 (Rattus norvegicus, UniProt Q9EPB1); assay: Inhibition of rat DPP2 expressed in african green monkey COS7 cells after 60 mins by fluorescence plate reader; format: cell-based, COS-7
Dipeptidyl peptidase 2, sequence (Q9EPB1 whole entry): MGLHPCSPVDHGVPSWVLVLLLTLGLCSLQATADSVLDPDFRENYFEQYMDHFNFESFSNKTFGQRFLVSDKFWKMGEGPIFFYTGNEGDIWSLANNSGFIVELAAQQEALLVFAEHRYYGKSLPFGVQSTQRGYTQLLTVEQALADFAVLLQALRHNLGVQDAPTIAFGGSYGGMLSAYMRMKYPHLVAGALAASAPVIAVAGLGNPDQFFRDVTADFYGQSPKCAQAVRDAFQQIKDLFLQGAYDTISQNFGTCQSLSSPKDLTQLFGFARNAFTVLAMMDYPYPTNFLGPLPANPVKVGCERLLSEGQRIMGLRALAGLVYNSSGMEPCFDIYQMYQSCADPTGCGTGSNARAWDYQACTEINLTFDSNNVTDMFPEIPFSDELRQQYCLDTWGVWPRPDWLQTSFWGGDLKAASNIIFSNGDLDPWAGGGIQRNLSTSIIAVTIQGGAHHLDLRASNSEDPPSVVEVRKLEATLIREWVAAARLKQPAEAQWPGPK

Aminopeptidase N = Aminopeptidase N (Homo sapiens, UniProt P15144); assay: Inhibition of APN
Aminopeptidase N, sequence (P15144 whole entry): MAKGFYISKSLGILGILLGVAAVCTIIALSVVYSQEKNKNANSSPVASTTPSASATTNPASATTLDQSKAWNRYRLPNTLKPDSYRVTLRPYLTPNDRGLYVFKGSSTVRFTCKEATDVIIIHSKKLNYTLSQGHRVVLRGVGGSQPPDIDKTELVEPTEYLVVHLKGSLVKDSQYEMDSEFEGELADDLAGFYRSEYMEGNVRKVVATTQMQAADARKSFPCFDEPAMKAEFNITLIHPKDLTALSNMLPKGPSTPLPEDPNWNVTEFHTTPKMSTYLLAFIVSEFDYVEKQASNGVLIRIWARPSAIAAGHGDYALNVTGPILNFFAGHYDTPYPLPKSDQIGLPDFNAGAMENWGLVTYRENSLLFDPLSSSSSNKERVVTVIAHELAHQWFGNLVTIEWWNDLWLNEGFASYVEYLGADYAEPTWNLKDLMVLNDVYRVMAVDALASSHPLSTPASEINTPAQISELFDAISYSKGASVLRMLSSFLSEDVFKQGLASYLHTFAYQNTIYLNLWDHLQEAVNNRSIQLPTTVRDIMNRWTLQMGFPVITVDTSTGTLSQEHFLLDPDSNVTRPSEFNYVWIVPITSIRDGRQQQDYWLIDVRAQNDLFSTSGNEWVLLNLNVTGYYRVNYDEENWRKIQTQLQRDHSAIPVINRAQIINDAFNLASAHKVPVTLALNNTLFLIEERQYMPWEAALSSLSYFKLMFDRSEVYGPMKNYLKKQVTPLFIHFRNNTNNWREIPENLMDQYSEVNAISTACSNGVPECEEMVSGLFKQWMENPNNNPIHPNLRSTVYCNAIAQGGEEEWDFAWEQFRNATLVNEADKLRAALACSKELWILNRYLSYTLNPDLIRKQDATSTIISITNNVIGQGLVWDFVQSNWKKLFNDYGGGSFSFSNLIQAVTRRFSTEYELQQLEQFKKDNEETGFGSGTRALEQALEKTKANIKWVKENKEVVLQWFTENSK

CYP2C9 = CYP2C9 (Homo sapiens, UniProt P11712); assay: Inhibition of CYP2C9 at 10 uM; format: ADME
CYP2C9, sequence (P11712 whole entry): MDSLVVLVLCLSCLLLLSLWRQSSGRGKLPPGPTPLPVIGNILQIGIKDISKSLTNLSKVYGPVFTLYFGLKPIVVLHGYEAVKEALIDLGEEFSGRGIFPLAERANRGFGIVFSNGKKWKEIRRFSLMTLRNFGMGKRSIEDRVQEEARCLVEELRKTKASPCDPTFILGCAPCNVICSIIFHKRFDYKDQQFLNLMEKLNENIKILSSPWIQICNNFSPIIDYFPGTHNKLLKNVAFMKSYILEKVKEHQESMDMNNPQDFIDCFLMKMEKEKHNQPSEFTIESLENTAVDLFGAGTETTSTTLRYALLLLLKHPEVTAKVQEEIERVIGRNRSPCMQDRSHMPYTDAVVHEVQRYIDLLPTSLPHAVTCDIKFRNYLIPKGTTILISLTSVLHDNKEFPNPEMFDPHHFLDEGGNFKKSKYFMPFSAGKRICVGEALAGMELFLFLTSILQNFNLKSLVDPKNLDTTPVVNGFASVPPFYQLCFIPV

CYP2C19 = CYP2C19 (Homo sapiens, UniProt P33261); assay: Inhibition of CYP2C19 at 10 uM; format: ADME
CYP2C19, sequence (P33261 whole entry): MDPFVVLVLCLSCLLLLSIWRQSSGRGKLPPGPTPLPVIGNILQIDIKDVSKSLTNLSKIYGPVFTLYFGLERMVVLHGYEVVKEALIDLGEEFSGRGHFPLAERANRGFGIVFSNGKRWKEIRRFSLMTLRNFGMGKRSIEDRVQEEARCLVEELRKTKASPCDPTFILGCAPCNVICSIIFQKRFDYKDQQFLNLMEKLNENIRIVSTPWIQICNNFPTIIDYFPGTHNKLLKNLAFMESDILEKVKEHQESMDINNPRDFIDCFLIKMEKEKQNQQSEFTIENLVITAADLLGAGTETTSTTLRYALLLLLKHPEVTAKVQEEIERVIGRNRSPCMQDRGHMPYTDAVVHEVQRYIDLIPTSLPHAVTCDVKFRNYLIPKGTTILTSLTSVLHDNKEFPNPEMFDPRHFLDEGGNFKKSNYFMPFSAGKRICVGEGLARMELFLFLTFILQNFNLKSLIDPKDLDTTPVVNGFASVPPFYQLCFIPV

CYP1A2 = molecular target: T2, CYP1A2 (Homo sapiens, UniProt P05177); assay: Inhibition of CYP1A2 at 10 uM; format: ADME
T2 sequence (P05177 whole entry): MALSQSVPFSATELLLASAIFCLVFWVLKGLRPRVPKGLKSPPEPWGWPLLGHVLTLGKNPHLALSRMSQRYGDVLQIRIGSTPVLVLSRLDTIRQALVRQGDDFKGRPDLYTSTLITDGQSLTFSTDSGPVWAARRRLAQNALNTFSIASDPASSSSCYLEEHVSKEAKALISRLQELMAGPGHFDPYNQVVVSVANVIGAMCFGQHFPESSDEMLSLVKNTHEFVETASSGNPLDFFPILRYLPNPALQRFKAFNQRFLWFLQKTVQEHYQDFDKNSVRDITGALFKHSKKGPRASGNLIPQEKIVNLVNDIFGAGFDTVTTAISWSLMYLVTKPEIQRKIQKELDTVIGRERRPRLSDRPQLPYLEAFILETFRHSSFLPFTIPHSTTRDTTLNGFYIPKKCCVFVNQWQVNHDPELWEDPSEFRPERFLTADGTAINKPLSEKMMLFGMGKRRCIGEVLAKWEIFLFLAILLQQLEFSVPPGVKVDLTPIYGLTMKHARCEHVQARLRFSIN

[6] = Inhibition of trypsin
[7] = Metabolic stability in human liver microsomes assessed as compound remaining after 1 hr; format: ADME, Microsome; conditions: read-out: Stability
HepG2 = assay: Cytotoxicity against human HepG2 cells at 100 uM; format: cell-based; conditions: hepg2, 100 µM
CYP3A4 = CYP3A4 (Homo sapiens, UniProt P08684); assay: Inhibition of CYP3A4 at 10 uM; format: ADME
CYP3A4, sequence (P08684 whole entry): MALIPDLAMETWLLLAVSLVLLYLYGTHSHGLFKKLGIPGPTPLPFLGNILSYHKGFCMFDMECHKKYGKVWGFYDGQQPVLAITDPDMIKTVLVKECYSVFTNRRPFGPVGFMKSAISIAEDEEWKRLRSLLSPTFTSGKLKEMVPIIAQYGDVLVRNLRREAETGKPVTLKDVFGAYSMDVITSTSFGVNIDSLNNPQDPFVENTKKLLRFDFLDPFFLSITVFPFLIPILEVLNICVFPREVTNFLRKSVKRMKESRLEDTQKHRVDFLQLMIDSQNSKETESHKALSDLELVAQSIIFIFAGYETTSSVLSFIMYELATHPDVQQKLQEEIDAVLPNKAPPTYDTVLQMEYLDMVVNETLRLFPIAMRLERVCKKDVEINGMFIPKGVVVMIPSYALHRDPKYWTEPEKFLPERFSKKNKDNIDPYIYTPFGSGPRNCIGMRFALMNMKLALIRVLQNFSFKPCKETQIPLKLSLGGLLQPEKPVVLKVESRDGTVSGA

CYP2D6 = CYP2D6 (Homo sapiens, UniProt P10635); assay: Inhibition of CYP2D6 at 10 uM; format: ADME
CYP2D6, sequence (P10635 whole entry): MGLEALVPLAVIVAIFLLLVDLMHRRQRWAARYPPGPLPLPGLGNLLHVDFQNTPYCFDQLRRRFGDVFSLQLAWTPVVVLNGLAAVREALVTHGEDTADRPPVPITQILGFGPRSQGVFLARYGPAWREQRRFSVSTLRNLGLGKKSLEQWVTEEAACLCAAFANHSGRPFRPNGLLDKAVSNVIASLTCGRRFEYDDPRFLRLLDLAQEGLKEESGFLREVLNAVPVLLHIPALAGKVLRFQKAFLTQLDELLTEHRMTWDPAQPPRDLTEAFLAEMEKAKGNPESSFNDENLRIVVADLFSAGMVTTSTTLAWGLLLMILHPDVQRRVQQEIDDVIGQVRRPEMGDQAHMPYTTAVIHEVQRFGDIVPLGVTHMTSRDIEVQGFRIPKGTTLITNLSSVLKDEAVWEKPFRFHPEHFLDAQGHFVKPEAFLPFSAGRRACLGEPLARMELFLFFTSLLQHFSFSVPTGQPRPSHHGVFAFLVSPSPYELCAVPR

Canis familiaris [8] = assay: Inhibition of DPP4 in Beagle dog plasma at 3 mg/kg, po after 1 hr; format: functional; conditions: Canis lupus familiaris
Rattus norvegicus [9] = assay: Inhibition of DPP4 in CD rat plasma at 10 mg/kg, po after 1 hr; format: functional
Canis familiaris [10] = assay: Inhibition of DPP4 in Beagle dog plasma at 3 mg/kg, po after 4 hrs; format: functional; conditions: Canis lupus familiaris
Rattus norvegicus [11] = assay: Inhibition of DPP4 in CD rat plasma at 10 mg/kg, po after 12 hrs; format: functional
Canis familiaris [12] = assay: Inhibition of DPP4 in Beagle dog plasma at 3 mg/kg, po after 24 hrs; format: functional; conditions: Canis lupus familiaris
Canis familiaris [13] = assay: Inhibition of DPP4 in Beagle dog plasma at 3 mg/kg, po after 12 hrs; format: functional; conditions: Canis lupus familiaris
Rattus norvegicus [14] = assay: Inhibition of DPP4 in CD rat plasma at 10 mg/kg, po after 8 hrs; format: functional

- remaining at 24 h [1]: > 90%
- pIC50 [3]: < 4.00
- pIC50 (Prolyl endopeptidase): < 4.00
- remaining at 1 h [5]: > 90%
- pIC50 (Dipeptidyl peptidase 2): < 4.00
- pIC50 (Aminopeptidase N): < 4.00
- inhibition at 10 µM (CYP2C9): 26.8%
- inhibition at 10 µM (CYP2C19): 46.9%
- inhibition at 10 µM (CYP1A2): 2.9%
- pIC50 [6]: < 4.00
- remaining at 1 h [7]: > 90%
- inhibition at 10 µM (CYP3A4): 3.5%
- inhibition at 10 µM (CYP2D6): 12.2%
Compound: CC(C)[C@@H](Nc1ccc(CNC(=O)[C@@H]2SCCN2C(=O)C[C@H](N)Cc2cc(F)c(F)cc2F)cc1)C(=O)O.Cl
- Activity [2]: Non-toxic
- pEC50 [4]: 3.39
- Activity (HepG2): Non-toxic

Compound: CCOC(=O)[C@H](Nc1ccc(CNC(=O)[C@@H]2SCCN2C(=O)C[C@H](N)Cc2cc(F)c(F)cc2F)cc1)C(C)C
- inhibition in vivo at 3 mg/kg (Canis familiaris [8]): 94%
- inhibition in vivo at 10 mg/kg (Rattus norvegicus [9]): 95%
- inhibition in vivo at 3 mg/kg (Canis familiaris [10]): 93%
- inhibition in vivo at 10 mg/kg (Rattus norvegicus [11]): 87%
- inhibition in vivo at 3 mg/kg (Canis familiaris [12]): 44%
- inhibition in vivo at 3 mg/kg (Canis familiaris [13]): 77%
- inhibition in vivo at 10 mg/kg (Rattus norvegicus [14]): 92%
